Test [1] relates to Mus musculus. Briefly: Antihyperglycemic activity in overnight fasted STZ-induced diabetic mouse model assessed as blood glucose level at 1 umol/kg, ip qd administered for 20 days measured after 20 days relative to control. It is filed as functional.
In test [2] the test system is Mus musculus. Description: Antioxidant activity in STZ-induced mouse model assessed as GSH level at 1 umol/kg, ip administered for 20 days measured on day 21 (reference value: 8.13 +/- 0.13 mg/ml). The test is classed as functional.
Test [3] deals with Mus musculus. Description: Antihyperglycemic activity in overnight fasted STZ-induced mouse model assessed as reduction of fasting blood glucose level at 1 umol/kg, ip administered for 20 days measured every 5 days up to 20 days. The test is classed as functional, organism-based.
The subject of test [4] is Mus musculus. Description: Antihyperglycemic activity in mouse assessed as decrease in blood glucose level at 1 umol/kg, ip pretreated with compound followed by glucose challenge measured after 30 to 60 mins by oral glucose tolerance test. It is filed as functional, organism-based.
The subject of test [5] is MIN6. Briefly: Inhibition of palmitate-induced apoptosis in mouse MIN6 cells assessed as reduction of apoptotic cells at 10 nM preincubated for 24 hrs followed by palmitate challenge measured after 1 hr by Hoechst 33342 staining-based microscopic analysis. The test is classed as functional, cell-based.
In test [6] the test system is Mus musculus. Description: Antioxidant activity in STZ-induced mouse model assessed as MDA level at 1 umol/kg, ip administered for 20 days measured on day 21 (reference value: 12.49 +/- 1.35 nmol/ml). It is filed as functional.
The subject of test [7] is Mus musculus. Description: Antihyperglycemic activity in STZ-induced mouse model assessed as decrease in body weight at 1 umol/kg, ip administered for 20 days measured every 5 days up to 20 days. It is filed as functional, organism-based.
For test [8], the system named is Mus musculus. Briefly: Antihyperglycemic activity in overnight fasted STZ-induced mouse model assessed as decrease in glycated hemoglobin level at 1 umol/kg, ip administered for 20 days measured on day 21. The test is classed as functional, organism-based.
In test [9] the test system is Mus musculus. Description: Antioxidant activity in STZ-induced mouse model assessed as GSH-PX level at 1 umol/kg, ip administered for 20 days measured on day 21 (reference value: 1449.23 +/- 49.42 U/ml). The test is classed as functional.
The subject of test [10] is Mus musculus. Description: Antihyperglycemic activity in STZ-induced mouse model assessed as decrease in water intake at 1 umol/kg, ip administered for 20 days measured every 5 days up to 20 days. The test is classed as functional, organism-based.
Test [11] relates to Mus musculus. Description: Antihyperglycemic activity in STZ-induced mouse model assessed as increase in islet number at 1 umol/kg, ip by hematoxylin and eosin staining technique. It is filed as functional, organism-based.
Test [12] deals with MIN6. Briefly: Inhibition of H202-induced apoptosis in mouse MIN6 cells assessed as change in nuclear fragmentation at 10 nM preincubated for 24 hrs followed by H202 challenge measured after 1 hr by Hoechst 33342 staining-based microscopic analysis. The test is classed as functional, cell-based.
The subject of test [13] is Mus musculus. Briefly: Antihyperglycemic activity in STZ-induced mouse model assessed as decrease in food intake at 1 umol/kg, ip administered for 20 days measured every 5 days up to 20 days. It is filed as functional, organism-based.
Test [14] concerns Mus musculus. Briefly: Antioxidant activity in STZ-induced mouse model assessed as SOD level at 1 umol/kg, ip administered for 20 days measured on day 21 (reference value: 41.58 +/- 2.89 U/ml). It is filed as functional.

Active and inactive are the calls of the source. No cut-off for these calls is given here.

Regarding H-GTNMKHMAGAA-OH, the Activity with Mus musculus [1] amounted to 15.26 mmol/L.

H-KGNMKHMAGAA-OH: the Activity with Mus musculus [1] worked out at 15.28 mmol/L.

Turning to H-KMNMKGMAGAA-OH, the Activity in the test with Mus musculus [1] is listed as 13.44 mmol/L.

As to H-KTGMKHMAGAA-OH, the Activity in the test on Mus musculus [1] is listed as 14.36 mmol/L.

Take H-KTMMKGMAGAA-OH: the Activity amounted to 12.14 mg/mL with Mus musculus [2]; 7.61 nmol/mL in the test on Mus musculus [6]; 11.8 mmol/L in the test on Mus musculus [1]; 1707.69 U/ml in the test on Mus musculus [9]; 46.96 U/ml with Mus musculus [14]. Also, the result with Mus musculus [3], with Mus musculus [4], with MIN6 [5], with Mus musculus [7], in the test with Mus musculus [8] and in the test on Mus musculus [10] was Active. The outcome with Mus musculus [11], with MIN6 [12] and in the test with Mus musculus [13] was Active.

With H-KTNGKHMAGAA-OH, in the test on Mus musculus [1], the Activity was found to be 18.34 mmol/L.

As to H-KTNMGHMAGAA-OH, the Activity in the test on Mus musculus [1] was 18.52 mmol/L.

As to H-KTNMKGMAGAA-OH, in the test on Mus musculus [1], the Activity was found to be 13.29 mmol/L.

Consider H-KTNMKGMAGAM-OH, for which, in the test with Mus musculus [1], the Activity was 20.18 mmol/L.

For H-KTNMKGMAGMA-OH, the Activity in the test with Mus musculus [1] was found to be 17.38 mmol/L.

Regarding H-KTNMKGMAMAA-OH, the Activity with Mus musculus [1] is given as 14.03 mmol/L.

With H-KTNMKHGAGAA-OH, the Activity in the test with Mus musculus [1] is 21.82 mmol/L.

In the case of H-KTNMKHMAGAA-OH, the Activity with Mus musculus [1] was 16.16 mmol/L.

H-KTNMKHMGGAA-OH: the Activity with Mus musculus [1] was 18.02 mmol/L.

In the case of H-MTNMKGMAGAA-OH, the Activity with Mus musculus [1] is recorded as 20.83 mmol/L.

The values are drawn from ChEMBL document CHEMBL3112516, “Design, synthesis and biological evaluation of novel peptide MC62 analogues as potential antihyperglycemic agents” (2014).
